SMILES strings stand for the structures. Some results are limits rather than exact numbers.

These results are taken from patent US10287301B2 (Achillion Pharmaceuticals, Inc., priority 2015, dated 2019).

The target in one assay is Human Factor D (Homo sapiens (Human), UniProt P00746). The experiment in a line: Human Factor D Assay. In kind it is biochemical. As to conditions: Human Factor D 80 nM, substrate Z-L-Lys-SBzl; read-out: IC50. The essentials: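 IC50 values derive from nonlinear regression of Factor D reaction rates against compound concentration. The enzyme, purified from human serum, is used at 80 nM final with a 5 min room-temperature compound preincubation in 50 mM Tris, 1M NaCl, pH 7.5, before 100 μM Z-L-Lys-SBzl plus 100 μM DTNB are added.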
Sequence of Human Factor D (P00746 26-253): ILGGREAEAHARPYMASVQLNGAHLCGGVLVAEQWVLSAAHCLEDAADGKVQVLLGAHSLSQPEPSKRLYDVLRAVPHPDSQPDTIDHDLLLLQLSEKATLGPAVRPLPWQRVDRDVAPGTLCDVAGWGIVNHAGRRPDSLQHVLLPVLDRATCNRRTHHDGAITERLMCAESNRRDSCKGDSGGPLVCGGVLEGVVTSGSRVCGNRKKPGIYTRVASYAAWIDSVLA
Consider `COCCNc1ncc(-c2ccc3c(c2)c(C(C)=O)cn3CC(=O)N2C[C@H](F)C[C@H]2C(=O)Nc2cccc(-c3ccccc3Cl)c2F)cn1` [Compound 187, (2S,4R)-1-(2-(3-acetyl-5-(2-(2-methoxyethylamino)pyrimidin-5-yl)-1H-indol-1-yl)acetyl)-N-(2′-chloro-2-fluorobiphenyl-3-yl)-4-fluoropyrrolidine-2-carboxamide], for which the IC50 is under 1 µM. For `CNc1ncc(-c2ccc3c(c2)c(C(C)=O)cn3CC(=O)N2C[C@H](F)C[C@H]2C(=O)Nc2cccc(-c3ccccc3Cl)c2F)cn1` [Compound 188, (2S,4R)-1-(2-(3-acetyl-5-(2-(methylamino)pyrimidin-5-yl)-1H-indol-1-yl)acetyl)-N-(2′-chloro-2-fluorobiphenyl-3-yl)-4-fluoropyrrolidine-2-carboxamide], the IC50 was under 1 µM. Still for that read-out and setting: under `CC(=O)c1nn(CC(=O)N2[C@@H]3C[C@@H]3C[C@H]2C(=O)Nc2cccc(-c3ccccc3Cl)c2F)c2ccc(-c3cnc(C)nc3)cc12` [Compound 189, (1R,3S,5R)-2-(2-(3-acetyl-5-(2-methylpyrimidin-5-yl)-1H-indazol-1-yl)acetyl)-N-(2′-chloro-2-fluorobiphenyl-3-yl)-2-azabicyclo[3.1.0] hexane-3-carboxamide] stands under 1 µM. For the molecule `CC(=O)c1nn(CC(=O)N2[C@@H]3C[C@@H]3C[C@H]2C(=O)Nc2cccc(Br)n2)c2ccc(-c3cnc(C)nc3)cc12` [Compound 190, (1R,3S,5R)-2-(2-(3-acetyl-5-(2-methylpyrimidin-5-yl)-1H-indazol-1-yl)acetyl)-N-(6-bromopyridin-2-yl)-2-azabicyclo[3.1.0] hexane-3-carboxamide], the IC50 was under 1 µM. As to `CC(=O)c1cn(CC(=O)N2C[C@H](F)C[C@H]2C(=O)Nc2cccc(-c3ccccc3Cl)c2F)c2ccc(-c3cnc(C(F)(F)F)nc3)cc12` [Compound 191, (2S,4R)-1-(2-(3-acetyl-5-(2-(trifluoromethyl)pyrimidin-5-yl)-1H-indol-1-yl)acetyl)-N-(2′-chloro-2-fluorobiphenyl-3-yl)-4-fluoropyrrolidine-2-carboxamide], the IC50 was under 1 µM.

The same assay, now with this note: Human Factor D assay of Example 8; Table 2; read-out: IC50.
As for `CC(=O)c1ccc(Cl)c(-c2cccc(NC(=O)[C@@H]3C[C@@H](F)CN3C(=O)Cn3nc(C(C)=O)c4cc(-c5cnc(C)nc5)ccc43)c2F)c1` [Compound 192, (2S,4R)-N-(5′-acetyl-2′-chloro-2-fluorobiphenyl-3-yl)-1-(2-(3-acetyl-5-(2-methylpyrimidin-5-yl)-1H-indazol-1-yl)acetyl)-4-fluoropyrrolidine-2-carboxamide], the IC50 is under 1 µM.

`CC(=O)c1cn(CC(=O)N2C[C@H](F)C[C@H]2C(=O)Nc2cccc(-c3ccccc3Cl)c2F)c2ccc(-c3cnc(NCC(F)(F)F)nc3)cc12` [Compound 193, (2S,4R)-1-(2-(3-acetyl-5-(2-(2,2,2-trifluoroethylamino)pyrimidin-5-yl)-1H-indol-1-yl)acetyl)-N-(2′-chloro-2-fluorobiphenyl-3-yl)-4-fluoropyrrolidine-2-carboxamide]: the IC50 was under 1 µM. As to `CCOc1ncc(-c2ccc3c(c2)c(C(C)=O)cn3CC(=O)N2C[C@H](F)C[C@H]2C(=O)Nc2cccc(-c3ccccc3Cl)c2F)cn1` [Compound 194, (2S,4R)-1-(2-(3-acetyl-5-(2-ethoxypyrimidin-5-yl)-1H-indol-1-yl)acetyl)-N-(2′-chloro-2-fluorobiphenyl-3-yl)-4-fluoropyrrolidine-2-carboxamide], the IC50 was under 1 µM. Same read-out and setting: to `NC(=O)c1nn(CC(=O)N2C[C@H](F)C[C@H]2C(=O)Nc2cccnc2O)c2ccc(-c3ccnnc3)cc12` [Compound 196, 1-(2-((2S,4R)-4-fluoro-2-(2-hydroxypyridin-3-ylcarbamoyl)pyrrolidin-1-yl)-2-oxoethyl)-5-(pyridazin-4-yl)-1H-indazole-3-carboxamide] belongs over 10 µM; to `CC(=O)c1cn(CC(=O)N2C[C@H](F)C[C@H]2C(=O)Nc2cccnc2O)c2ccc(-c3ccnnc3)cc12` [Compound 197], over 10 µM; to `CC(=O)c1nn(CC(=O)N2C[C@H](F)C[C@H]2C(=O)Nc2cccc(-c3cc(C(N)=O)ccc3Cl)c2F)c2ccc(-c3cnc(C)nc3)cc12` [Compound 198, (2S,4R)-1-(2-(3-acetyl-5-(2-methylpyrimidin-5-yl)-1H-indazol-1-yl)acetyl)-N-(5′-carbamoyl-2′-chloro-2-fluorobiphenyl-3-yl)-4-fluoropyrrolidine-2-carboxamide], under 1 µM. Regarding `Cc1ncc(-c2ccc3c(c2)c(C(N)=O)nn3CC(=O)N2[C@@H]3C[C@@H]3C[C@H]2C(=O)Nc2cccc(Br)n2)cn1` [Compound 202, 1-(2-((1R,3S,5R)-3-(6-bromopyridin-2-ylcarbamoyl)-2-azabicyclo[3.1.0]hexan-2-yl)-2-oxoethyl)-5-(2-methylpyrimidin-5-yl)-1H-indazole-3-carboxamide], the IC50 was under 1 µM. Still for that read-out and setting: to `COc1ncc(-c2ccc3c(c2)c(C(C)=O)cn3CC(=O)N2C[C@H](Cl)C[C@H]2C(=O)Nc2cccc(-c3ccccc3Cl)c2F)cn1` [Compound 203] belongs under 1 µM; to `COC(=O)c1ncc(-c2ccc3c(c2)c(C(C)=O)cn3CC(=O)N2C[C@H](F)C[C@H]2C(=O)Nc2cccc(-c3ccccc3Cl)c2F)cn1` [Compound 204, methyl 5-(3-acetyl-1-(2-((2S,4R)-2-(2′-chloro-2-fluorobiphenyl-3-ylcarbamoyl)-4-fluoropyrrolidin-1-yl)-2-oxoethyl)-1H-indol-5-yl)pyrimidine-2-carboxylate], under 1 µM. Same read-out and setting: under `CC(=O)c1cn(CC(=O)N2C[C@H](F)C[C@H]2C(=O)Nc2cccc(-c3ccccc3Cl)c2F)c2ccc(-c3cnc(C(=O)O)nc3)cc12` [Compound 205, 5-(3-acetyl-1-(2-((2S,4R)-2-(2′-chloro-2-fluorobiphenyl-3-ylcarbamoyl)-4-fluoropyrrolidin-1-yl)-2-oxoethyl)-1H-indol-5-yl)pyrimidine-2-carboxylic acid] stands under 1 µM. Still for that read-out and setting: under `CC(=O)c1cn(CC(=O)N2C[C@H](F)C[C@H]2C(=O)Nc2cccc(-c3ccncc3Cl)c2F)c2ccc(-c3cnc(C)nc3)cc12` [Compound 206, (2S,4R)-1-(2-(3-acetyl-5-(2-methylpyrimidin-5-yl)-1H-indol-1-yl)acetyl)-N-(3-(3-chloropyridin-4-yl)-2-fluorophenyl)-4-fluoropyrrolidine-2-carboxamide] stands under 1 µM; under `CC(=O)c1cn(CC(=O)N2C[C@H](F)C[C@H]2C(=O)Nc2cccc(-c3ccccc3Cl)c2F)c2ccc(-c3cnc(C)c(Cl)c3)cc12` [Compound 207, (2S,4R)-1-(2-(3-acetyl-5-(5-chloro-6-methylpyridin-3-yl)-1H-indol-1-yl)acetyl)-N-(2′-chloro-2-fluorobiphenyl-3-yl)-4-fluoropyrrolidine-2-carboxamide], under 1 µM; under `NC(=O)c1nn(CC(=O)N2C[C@H](F)C[C@H]2C(=O)Nc2cccc(-c3ccccc3Cl)c2F)cc1-c1ccsc1` [Compound 208, 1-(2-((2S,4R)-2-(2′-chloro-2-fluorobiphenyl-3-ylcarbamoyl)-4-fluoropyrrolidin-1-yl)-2-oxoethyl)-4-(thiophen-3-yl)-1H-pyrazole-3-carboxamide], 1 to 10 µM. Consider `CC(=O)c1cn(CC(=O)N2C[C@H](F)C[C@H]2C(=O)Nc2cccc(-c3ccccc3Cl)c2F)c2ccc(-c3cnc(C(N)=O)nc3)cc12` [Compound 209, 5-(3-acetyl-1-(2-((2S,4R)-2-(2′-chloro-2-fluorobiphenyl-3-ylcarbamoyl)-4-fluoropyrrolidin-1-yl)-2-oxoethyl)-1H-indol-5-yl)pyrimidine-2-carboxamide], for which the IC50 is under 1 µM.

As for `CC(=O)c1cn(CC(=O)N2C[C@H](F)C[C@H]2C(=O)Nc2cccc(-c3ccccc3Cl)c2F)c2ccc(-c3cnc(S(C)(=O)=O)nc3)cc12` [Compound 210, (2S,4R)-1-(2-(3-acetyl-5-(2-(methylsulfonyl)pyrimidin-5-yl)-1H-indol-1-yl)acetyl)-N-(2′-chloro-2-fluorobiphenyl-3-yl)-4-fluoropyrrolidine-2-carboxamide], the IC50 is under 1 µM.

Regarding `CC(=O)c1cn(CC(=O)N2C[C@H](F)C[C@H]2C(=O)Nc2cccc(-c3ccccc3Cl)c2F)c2ccc(-c3cnc(C(=O)NC4CC4)nc3)cc12` [Compound 211, 5-(3-acetyl-1-(2-((2S,4R)-2-(2′-chloro-2-fluorobiphenyl-3-ylcarbamoyl)-4-fluoropyrrolidin-1-yl)-2-oxoethyl)-1H-indol-5-yl)-N-cyclopropylpyrimidine-2-carboxamide], the IC50 is under 1 µM. In the case of `COCCOCCNC(=O)c1ncc(-c2ccc3c(c2)c(C(C)=O)cn3CC(=O)N2C[C@H](F)C[C@H]2C(=O)Nc2cccc(-c3ccccc3Cl)c2F)cn1` [Compound 212, 5-(3-acetyl-1-(2-((2S,4R)-2-(2′-chloro-2-fluorobiphenyl-3-ylcarbamoyl)-4-fluoropyrrolidin-1-yl)-2-oxoethyl)-1H-indol-5-yl)-N-(2-(2-methoxyethoxy)ethyl)pyrimidine-2-carboxamide], the IC50 was under 1 µM.

Turning to `CC(=O)c1cn(CC(=O)N2C[C@H](F)C[C@H]2C(=O)Nc2cccc(Br)n2)c2ccc(-c3cnc(C(N)=O)nc3)cc12` [Compound 213, 5-(3-acetyl-1-(2-((2S,4R)-2-(6-bromopyridin-2-ylcarbamoyl)-4-fluoropyrrolidin-1-yl)-2-oxoethyl)-1H-indol-5-yl)pyrimidine-2-carboxamide], the IC50 was under 1 µM. For `CC(=O)c1nn(CC(=O)N2C[C@H](F)C[C@H]2C(=O)Nc2cccc(-c3ccc4[nH]cnc4c3Cl)c2F)c2ccc(-c3cnc(C)nc3)cc12` [Compound 214, (2S,4R)-1-(2-(3-acetyl-5-(2-methylpyrimidin-5-yl)-1H-indazol-1-yl)acetyl)-N-(3-(4-chloro-1H-benzo[d]imidazol-5-yl)-2-fluorophenyl)-4-fluoropyrrolidine-2-carboxamide], the half-inhibitory concentration (IC50) was under 1 µM.
